Results taken from article PMC9006293 (Blood Advances, 2022).

Key:
[1] = test system: PRCLT-specific T-cell hybridoma clones; experiment: Antigen-presentation assay, PRCLT-specific clones with fresh or fixed MGAR APCs; format: cell-based, mouse; conditions: fresh and paraformaldehyde-fixed MGAR APCs, 48 hours, ELISA
HLA-DR molecules = conditions: FVIII-pulsed donor-derived human dendritic cells with diverse HLA-DRB1* molecules; cited from earlier work
[2] = test system: DNIMV-specific T-cell hybridoma clones; experiment: Antigen-presentation assay, DNIMV-specific clones with fresh or fixed MGAR APCs; format: cell-based, mouse; conditions: fresh and paraformaldehyde-fixed MGAR APCs, 48 hours, ELISA

Sequence: PRCLTRYYSSFVNME
- IL-2 response of PRCLT-specific clones [1]: produced IL-2

Sequence: FRNQASRPY
- HLA-DR binding (HLA-DR molecules): promiscuous pan-DR HLA-DR binding peptide

Sequence: DNIMVTFRNQASRPY
- IL-2 response of DNIMV-specific clones [2]: activated
